This passage reports mutagenic call and call results from PubChem BioAssay AID1259408 (Genetic Toxicology Data Bank (GENE-TOX), 2018).

Molecules are shown by their SMILES. Calls of active or inactive are those of the source. No rule for the calls is given here.

This data set deals with GENE-TOX genotoxicity assays, various organisms and cells. Nature of the data set: GENE-TOX mutagenicity studies. To be noted: for call: Assay Type: In vivo carcinogenicity studies.
[1] abbreviates: Species/Cell Type: Saccharomyces cerevisiae, Assay Type: Mitotic recombination or gene conversion, Assay Code: YEC+, Evaluation Type: Evaluation A (Pre-1980).
Setting [2] is: Species/Cell Type: Salmonella typhimurium (one or more of the five standard strains: TA98, TA100, TA1535, TA1537, and TA1538), Assay Type: Histidine reverse gene mutation, Ames assay, Assay Code: SAL+, Evaluation Type: Evaluation A (Pre-1980).
[3] abbreviates: Species/Cell Type: Escherichia coli polA (W3119 vs P3478), Assay Type: Rec-assay, DNA effects (bacterial DNA repair), Assay Code: RE1+, Evaluation Type: Evaluation A (Pre-1980).
[4] abbreviates: Species/Cell Type: Saccharomyces cerevisiae, Assay Type: Mitotic recombination or gene conversion, Assay Code: YEH+, Evaluation Type: Evaluation A (Pre-1980).
Where [5] appears, read: Species/Cell Type: Salmonella typhimurium (one or more of the five standard strains: TA98, TA100, TA1535, TA1537, and TA1538), Assay Type: Histidine reverse gene mutation, Ames assay, Assay Code: SALT, Evaluation Type: Evaluation A (Pre-1980).
The mark [6] stands for this setting: Species/Cell Type: Nonhuman, Assay Code: CCG+, Evaluation Type: Evaluation A (Pre-1980).
Where [7] appears, read: Species/Cell Type: Human, Assay Type: Sister-chromatid exchange (SCE) in vitro, Assay Code: SC1T, Evaluation Type: Evaluation B (Post-1980).
Where [8] appears, read: Species/Cell Type: Salmonella typhimurium, Assay Type: Forward and reverse gene mutation, host-mediated assay, Assay Code: HMA+, Evaluation Type: Evaluation A (Pre-1980).
Where [9] appears, read: Species/Cell Type: Salmonella typhimurium (one or more of the five standard strains: TA98, TA100, TA1535, TA1537, and TA1538), Assay Type: Histidine reverse gene mutation, Ames assay, Assay Code: SAL-, Evaluation Type: Evaluation A (Pre-1980).

As for `O=c1c(O)c(-c2ccc(O)c(O)c2)oc2cc(O)cc(O)c12`, the mutagenic call (Species/Cell Type: Chinese hamster ovary (CHO) cells, Assay Type: Forward gene mutation at the HPRT locus, Assay Code: CHOT, Evaluation Type: Evaluation B (Post-1980)) is given as “no conclusion”; the mutagenic call (Species/Cell Type: Human lymphocytes, Assay Type: Sister-chromatid exchange (SCE) in vitro, Assay Code: SCL+D, Dose Response: With dose response, Evaluation Type: Evaluation B (Post-1980)) is “active; positive”; the mutagenic call (Species/Cell Type: Human, Assay Type: Sister-chromatid exchange (SCE) in vitro, Assay Code: SC1+D, Dose Response: With dose response, Evaluation Type: Evaluation B (Post-1980)) was “active; positive”; the mutagenic call (Species/Cell Type: Mammalian polychromatic erythrocytes, Assay Type: Micronucleus test, chromosome aberrations, Assay Code: MNT+, Evaluation Type: Evaluation B (Post-1980)) is “active; positive”; the mutagenic call (Species/Cell Type: Nonhuman, Assay Type: Sister-chromatid exchange (SCE) in vitro, Assay Code: SC2+/-*, Activation: With metabolic activation, Evaluation Type: Evaluation B (Post-1980)) is “inactive; positive without activation, negative with activation”; the mutagenic call (Species/Cell Type: Nonhuman, Assay Type: Sister-chromatid exchange (SCE) in vivo, Assay Code: SC3-, Evaluation Type: Evaluation B (Post-1980)) was “inactive; negative”. Also, the mutagenic call is “active; positive” under setting [1] and “active; positive” under setting [2].

For the compound `CCCCOc1ccc(CC(=O)OC)cc1CSC(=N)N`, the mutagenic call (Species/Cell Type: Saccharomyces cerevisiae, Assay Type: Reverse gene mutation, Assay Code: YERT, Evaluation Type: Evaluation A (Pre-1980)) is on record as “no conclusion”.

For the compound `S=c1nc[nH]c2nc[nH]c12`, the mutagenic call is “active; positive” under setting [3]; “active; positive” (Species/Cell Type: Mammalian germ cells, Sex: Male, Assay Type: Chromosome aberrations in vivo, Assay Code: CY9+, Evaluation Type: Evaluation A (Pre-1980)); “active; positive” (Species/Cell Type: Mammalian polychromatic erythrocytes, Assay Type: Micronucleus test, chromosome aberrations, Assay Code: MNT+, Evaluation Type: Evaluation A (Pre-1980)); “inactive; negative” (Species/Cell Type: Mouse (C3H/10T1/2) cells, Assay Type: Cell transformation, Assay Code: CTH-, Evaluation Type: Evaluation A (Pre-1980)); “inactive; negative” (Species/Cell Type: Mouse, Sex: Male, Assay Type: Heritable translocation test, chromosome aberrations, Assay Code: HTT-, Evaluation Type: Evaluation A (Pre-1980)); “active; positive” (Species/Cell Type: Nonhuman bone marrow, Assay Type: Chromosome aberrations, in vivo, Assay Code: CY#+D, Dose Response: With dose response, Evaluation Type: Evaluation A (Pre-1980)). The mutagenic call by setting is: (Species/Cell Type: Nonhuman, Assay Type: Sister-chromatid exchange (SCE) in vitro, Assay Code: SC2T, Evaluation Type: Evaluation B (Post-1980)) “no conclusion”; (Species/Cell Type: Rodents, Sex: Male, Assay Type: Dominant lethal test, Assay Code: DLT+, Evaluation Type: Evaluation A (Pre-1980)) “active; positive”. For the same compound, the call (Species/Cell Type: Nonhuman, Assay Code: CCGT, Evaluation Type: Evaluation A (Pre-1980)) is recorded as “no conclusion”.

As for `Nc1nc(/C=C/c2ccc([N+](=O)[O-])o2)no1`, the mutagenic call runs as follows: (Species/Cell Type: Fischer rat embryo (RLV/1706) cells, Assay Type: Cell transformation, viral enhanced, Assay Code: CTR+, Evaluation Type: Evaluation A (Pre-1980)) “active; positive”; (Species/Cell Type: Neurospora crassa, Assay Type: Forward gene mutation, Assay Code: NEF+, Evaluation Type: Evaluation A (Pre-1980)) “active; positive”; (Species/Cell Type: Neurospora crassa, Assay Type: Reverse gene mutation, Assay Code: NER+, Evaluation Type: Evaluation A (Pre-1980)) “active; positive”; under setting [1], “active; positive”; under setting [4], “active; positive”; (Species/Cell Type: Saccharomyces cerevisiae, Assay Type: Reverse gene mutation, Assay Code: YER+, Evaluation Type: Evaluation A (Pre-1980)) “active; positive”.

As to `CCCCCC(=O)N(C)N=O`, under setting [1], the mutagenic call is “active; positive”.

As to `Cc1c(F)c2ccccc2c2ccc3ccccc3c12`, under setting [5], the mutagenic call was “no conclusion”.

Turning to `Cc1cc(=O)[nH]c(=S)[nH]1`, the call under setting [6] was “active; positive”.

Regarding `CC(C)C[C@H](NC(=O)[C@@H](O)[C@H](N)Cc1ccccc1)C(=O)O`, the mutagenic call under setting [7] was “no conclusion”.

For the compound `OC1CCCCC1`, the mutagenic call (Species/Cell Type: Allium cepa, Assay Type: Chromosome aberrations, Assay Code: ALC-, Evaluation Type: Evaluation A (Pre-1980)) was “inactive; negative”.

In the case of `Cc1cc(O)c2c(c1O)C(=O)c1cc(O)cc(O)c1C2=O`, the mutagenic call under setting [2] is “active; positive”.

As for `O=C(CCN1CCCCC1)c1ccc2c(c1)OCO2`, the mutagenic call under setting [8] is “active; positive”.

Regarding `COP(=S)(OC)Oc1ccc([N+](=O)[O-])c(C)c1`, the mutagenic call is “no conclusion” (Species/Cell Type: Drosophila melanogaster, Assay Type: Sex-linked recessive lethal gene mutation, Assay Code: SRLT, Evaluation Type: Evaluation A (Pre-1980)); “active; positive” (Species/Cell Type: Human, Assay Type: Sister-chromatid exchange (SCE) in vitro, Assay Code: SC1+, Evaluation Type: Evaluation B (Post-1980)); “no conclusion” (Species/Cell Type: Mammalian polychromatic erythrocytes, Assay Type: Micronucleus test, chromosome aberrations, Assay Code: MNTT, Evaluation Type: Evaluation B (Post-1980)); “inactive; negative” (Species/Cell Type: Rodents, Sex: Male, Assay Type: Dominant lethal test, Assay Code: DLT-, Evaluation Type: Evaluation A (Pre-1980)); “inactive; negative” (Species/Cell Type: Salmonella typhimurium, Assay Type: Forward and reverse gene mutation, host-mediated assay, Assay Code: HMA-, Evaluation Type: Evaluation A (Pre-1980)).

As to `Cn1c(=O)c2c(ncn2CC(O)CO)n(C)c1=O` (centres undefined), the mutagenic call (Species/Cell Type: Human lymphocytes, Assay Type: Sister-chromatid exchange (SCE) in vitro, Assay Code: SCLT, Evaluation Type: Evaluation B (Post-1980)) is given as “no conclusion” and the mutagenic call under setting [7] is listed as “no conclusion”.

Take `O=c1cc[nH]c2ccccc12`: the mutagenic call under setting [9] is “inactive; negative”.

As to `CCN(CC)CCn1c2ccc(C)c3c2c([n+]1[O-])-c1ccc(Cl)cc1S3`, the mutagenic call under setting [5] was “no conclusion”.

Consider `[Cl][Sn][Cl]`, for which the mutagenic call runs as follows: (Species/Cell Type: Bacillus subtilis (H17 vs M45), Assay Type: Rec-assay, spot test, DNA effects (bacterial DNA repair), Assay Code: REW-, Evaluation Type: Evaluation A (Pre-1980)) “inactive; negative”; (Species/Cell Type: Escherichia coli WP2 UVRA, Assay Type: Tryptophan reverse gene mutation, Assay Code: WPU-*, Activation: With metabolic activation, Evaluation Type: Evaluation A (Pre-1980)) “inactive; negative”; (Species/Cell Type: Nonhuman, Assay Type: Sister-chromatid exchange (SCE) in vitro, Assay Code: SC2-, Evaluation Type: Evaluation B (Post-1980)) “inactive; negative”. For the setting “Species/Cell Type: Nonhuman, Assay Code: CCG-L, Evaluation Type: Evaluation A (Pre-1980)”, the call is “inactive; negative”.

In the case of `CCCCN(CC(O)CC)N=O` (centres undefined), where the note is “Species/Cell Type: Salmonella typhimurium (one or more of the five standard strains: TA98, TA100, TA1535, TA1537, and TA1538), Assay Type: Histidine reverse gene mutation, Ames assay, Assay Code: SAL+*, Activation: With metabolic activation, Evaluation Type: Evaluation A (Pre-1980)”, the mutagenic call was “active; positive”.

In the case of `Nc1ccc2c(c1)-c1ccccc1C2`, the mutagenic call (Species/Cell Type: Fischer rat embryo (RLV/1706) cells, Assay Type: Cell transformation, viral enhanced, Assay Code: CTR-, Evaluation Type: Evaluation A (Pre-1980)) is “inactive; negative”.

For the compound `C=CCc1ccc2c(c1)OCO2`, the mutagenic call was “inactive; negative” (Species/Cell Type: Drosophila melanogaster, Assay Type: Sex-linked recessive lethal gene mutation, Assay Code: SRL-, Evaluation Type: Evaluation A (Pre-1980)); “active; positive” (Species/Cell Type: Escherichia coli polA (W3110 vs P3478), Assay Type: Rec-assay, DNA effects (bacterial DNA repair), Assay Code: RE2+, Evaluation Type: Evaluation A (Pre-1980)); “active; positive” under setting [3]; “inactive; negative” (Species/Cell Type: Human diploid fibroblasts, Assay Type: Unscheduled DNA synthesis (UDS) in vitro, DNA effects, Assay Code: UDH-*, Activation: With metabolic activation, Evaluation Type: Evaluation A (Pre-1980)); “no conclusion” (Species/Cell Type: Mammalian polychromatic erythrocytes, Assay Type: Micronucleus test, chromosome aberrations, Assay Code: MNTT, Evaluation Type: Evaluation A (Pre-1980)); “no conclusion” (Species/Cell Type: Mouse, Sex: Male, Assay Type: Sperm morphology, Assay Code: SPIT, Evaluation Type: Evaluation A (Pre-1980)). The mutagenic call was “active; positive” (Species/Cell Type: Nonhuman, Assay Type: Sister-chromatid exchange (SCE) in vitro, Assay Code: SC2+, Evaluation Type: Evaluation B (Post-1980)); “active; positive” under setting [4]; “inactive; negative” under setting [9]; “active; positive” under setting [8]; “active; positive” (Species/Cell Type: Syrian hamster embryo (SHE) cells, Assay Type: Cell transformation, clonal assay, Assay Code: CTC+, Evaluation Type: Evaluation A (Pre-1980)); “active; positive” (Species/Cell Type: Tradescantia species, Assay Type: Gene mutation, Assay Code: TRM+D, Dose Response: With dose response, Evaluation Type: Evaluation A (Pre-1980)). Besides, under setting [6], the call is “active; positive”.
